Consider ten molecules from ChEMBL document CHEMBL1687887, “Evolution of potent and stable placental-growth-factor-1-targeting CovX-bodies from phage display peptide discovery” (J Med Chem, 2011).

Bridge positions count the residues as written; N and C are the ends. Square brackets hold non-standard residues; d marks the D form. Peptide text beside a SMILES is read from it. * marks the point of attachment. X1 = O=C(COCC(=O)*)Nc1ccc(CCC(=O)N2CCC2=O)cc1; NMeE = CN[C@@H](CCC(=O)O)C(=O)O Where only a bound is given, the exact number is not on record here.

The target of data set [1] is T1, Placenta growth factor (Mus musculus, UniProt P49764).
T1 sequence (P49764 whole entry): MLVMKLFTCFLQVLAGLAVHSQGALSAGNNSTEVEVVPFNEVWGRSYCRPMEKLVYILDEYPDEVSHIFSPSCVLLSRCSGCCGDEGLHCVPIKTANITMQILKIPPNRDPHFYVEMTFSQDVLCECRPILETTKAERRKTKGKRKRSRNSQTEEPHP
Nature of the data set: Inhibition of mouse PlGF-VEGFR-1 interaction by ELISA. On the technique in general: An ELISA detects its analyte on a solid surface through an enzyme-linked reagent.

Data set [2] can be described thus: Stability in Swiss Webster mouse serum assessed as functional compound remaining after 6 hrs. Particulars: read-out: Stability. The format is ADME, cell-free.
The target in data set [3] is T2, Placenta growth factor (Homo sapiens, UniProt P49763).
T2 sequence (P49763 whole entry): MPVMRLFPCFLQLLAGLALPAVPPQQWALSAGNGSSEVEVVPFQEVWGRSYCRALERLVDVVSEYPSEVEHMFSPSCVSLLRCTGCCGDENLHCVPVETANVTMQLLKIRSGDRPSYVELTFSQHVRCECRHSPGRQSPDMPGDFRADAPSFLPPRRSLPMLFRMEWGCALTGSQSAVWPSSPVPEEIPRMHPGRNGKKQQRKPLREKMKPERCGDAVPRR
In words: Binding affinity to human PlGF-1. Particulars: read-out: Kd.

Data set [4] has as its target T2, Placenta growth factor. In words: Inhibition of human PlGF-1-VEGFR-1 interaction by ELISA.
The nature of data set [5]: Terminal half life in Swiss Webster mouse at 10 mg/kg, iv. The format is ADME, organism-based. On the set-up: dose 10 mg/kg, route intravenous. Particulars: in vivo, read-out: beta t1/2 (converted).

Turning to `CSCC[C@H](NC(=O)[C@@H](NC(=O)[C@H](CCCCNC(C)=O)NC(=O)[C@@H]1CSSC[C@H](NC(=O)[C@@H](NC(=O)[C@H](CC(=O)O)NC(=O)[C@H](Cc2ccccc2)NC(C)=O)C(C)C)C(=O)N[C@@H](CC(N)=O)C(=O)N[C@@H](Cc2c[nH]c3ccccc23)C(=O)N[C@@H](C(C)C)C(=O)N[C@@H](CCCCNC(=O)COCC(=O)Nc2ccc(CCC(=O)N3CCC3=O)cc2)C(=O)N[C@@H](CC(C)C)C(=O)N2CCC[C@H]2C(=O)N[C@@H](Cc2cnc[nH]2)C(=O)N1)C(C)C)C(N)=O` (Ac-FDVCNWVK(X1)LPHCK(Ac)VM-NH2; disulfide 4-12), the midpoint of inhibition on Placenta growth factor [1], the IC50, lay at 4 nM. In addition, the remaining at 6 h in data set [2] worked out at 20%. For the same molecule, the Kd – broadly, the equilibrium constant for the complex coming apart – on Placenta growth factor [3] turned out to be 9 nM.

Take `CC[C@H](C)[C@@H]1NC(=O)[C@H](Cc2ccc(O)cc2)NC(=O)[C@H](Cc2cnc[nH]2)NC(=O)[C@@H](NC(=O)[C@@H](NC(=O)[C@H](CCC(=O)O)NC(=O)[C@H](Cc2ccccc2)NC(C)=O)C(C)C)CSSC[C@@H](C(=O)N[C@H](C(=O)N[C@@H](CCCN=C(N)N)C(=O)N[C@@H](Cc2ccc(O)cc2)C(N)=O)[C@@H](C)O)NC(=O)[C@H](Cc2cnc[nH]2)NC(=O)[C@@H]2CCCN2C(=O)[C@H](CC(C)C)NC(=O)[C@H](CCCCNC(=O)COCC(=O)Nc2ccc(CCC(=O)N3CCC3=O)cc2)NC1=O`: the half-inhibitory concentration (IC50) (commonly the concentration that gives 50% inhibition) against Placenta growth factor [1] stood at 0.7 nM. Also, the remaining at 6 h in data set [2] came to 4%. For the same molecule, the Kd on Placenta growth factor [3] worked out at 0.3 nM.

Consider `CC[C@H](C)[C@@H]1NC(=O)[C@H](Cc2ccc(O)cc2)NC(=O)[C@H](Cc2cnc[nH]2)NC(=O)[C@@H](NC(=O)[C@@H](NC(=O)[C@H](CCC(=O)O)NC(=O)[C@H](Cc2ccccc2)NC(C)=O)C(C)C)CSSC[C@@H](C(=O)N[C@@H](C(=O)N[C@H](CCCN=C(N)N)C(=O)N[C@H](Cc2ccc(O)cc2)C(N)=O)[C@@H](C)O)NC(=O)[C@H](Cc2cnc[nH]2)NC(=O)[C@@H]2CCCN2C(=O)[C@H](CC(C)C)NC(=O)[C@H](CCCCNC(=O)COCC(=O)Nc2ccc(CCC(=O)N3CCC3=O)cc2)NC1=O`, for which, on Placenta growth factor [1], half-maximal inhibition (IC50) was put at 0.2 nM. Moreover, the remaining at 6 h in data set [2] was 23%.

Regarding `CSCC[C@H](NC(=O)[C@@H](NC(=O)[C@H](CCCCNC(C)=O)NC(=O)[C@@H]1CSSC[C@H](NC(=O)[C@@H](NC(=O)[C@H](CC(=O)O)NC(=O)[C@H](Cc2ccccc2)NC(C)=O)C(C)C)C(=O)N[C@@H](CC(N)=O)C(=O)N[C@@H](Cc2c[nH]c3ccccc23)C(=O)N[C@@H](CCCCNC(=O)COCC(=O)Nc2ccc(CCC(=O)N3CCC3=O)cc2)C(=O)N[C@@H]([C@@H](C)O)C(=O)N[C@@H](CC(C)C)C(=O)N2CCC[C@H]2C(=O)N[C@@H](Cc2cnc[nH]2)C(=O)N1)C(C)C)C(N)=O` (Ac-FDVCNWK(X1)TLPHCK(Ac)VM-NH2; disulfide 4-12), the IC50 on Placenta growth factor [1] is above 1000 nM. For the same molecule, the Kd at Placenta growth factor [3] was above 1000 nM.

On Placenta growth factor [1], `CSCC[C@H](NC(=O)[C@@H](NC(=O)[C@H](CCCCNC(=O)COCC(=O)Nc1ccc(CCC(=O)N2CCC2=O)cc1)NC(=O)[C@@H]1CSSC[C@H](NC(=O)[C@@H](NC(=O)[C@H](CC(=O)O)NC(=O)[C@H](Cc2ccccc2)NC(C)=O)C(C)C)C(=O)N[C@@H](CC(N)=O)C(=O)N[C@@H](Cc2c[nH]c3ccccc23)C(=O)N[C@@H](C(C)C)C(=O)N[C@@H]([C@@H](C)O)C(=O)N[C@@H](CC(C)C)C(=O)N2CCC[C@H]2C(=O)N[C@@H](Cc2cnc[nH]2)C(=O)N1)C(C)C)C(N)=O` (Ac-FDVCNWVTLPHCK(X1)VM-NH2; disulfide 4-12) had a half-maximal inhibitory concentration (IC50) of 54 nM. Further, the remaining at 6 h in data set [2] was 11%. Further, the dissociation constant Kd at Placenta growth factor [3] came to 4 nM.

Molecule `CSCC[C@H](NC(=O)[C@@H](NC(=O)[C@H](CCCCNC(C)=O)NC(=O)[C@@H]1CSSC[C@H](NC(=O)[C@@H](NC(=O)[C@H](CC(=O)O)NC(=O)[C@H](Cc2ccccc2)NC(C)=O)C(C)C)C(=O)N[C@@H](CC(N)=O)C(=O)N[C@@H](Cc2c[nH]c3ccccc23)C(=O)N[C@@H](C(C)C)C(=O)N[C@@H]([C@@H](C)O)C(=O)N[C@@H](CCCCNC(=O)COCC(=O)Nc2ccc(CCC(=O)N3CCC3=O)cc2)C(=O)N2CCC[C@H]2C(=O)N[C@@H](Cc2cnc[nH]2)C(=O)N1)C(C)C)C(N)=O` (Ac-FDVCNWVTK(X1)PHCK(Ac)VM-NH2; disulfide 4-12) yielded a half-inhibitory concentration (IC50) against Placenta growth factor [1] above 1000 nM. Also, at Placenta growth factor [3], the Kd was above 1000 nM.

As for `CSCC[C@H](NC(=O)[C@@H](NC(=O)[C@H](CCCCNC(C)=O)NC(=O)[C@@H]1CSSC[C@H](NC(=O)[C@@H](NC(=O)[C@H](CC(=O)O)NC(=O)[C@H](Cc2ccccc2)NC(C)=O)C(C)C)C(=O)N[C@@H](CC(N)=O)C(=O)N[C@@H](CCCCNC(=O)COCC(=O)Nc2ccc(CCC(=O)N3CCC3=O)cc2)C(=O)N[C@@H](C(C)C)C(=O)N[C@@H]([C@@H](C)O)C(=O)N[C@@H](CC(C)C)C(=O)N2CCC[C@H]2C(=O)N[C@@H](Cc2cnc[nH]2)C(=O)N1)C(C)C)C(N)=O` (Ac-FDVCNK(X1)VTLPHCK(Ac)VM-NH2; disulfide 4-12), the half-maximal inhibitory concentration (IC50) against Placenta growth factor [1] was above 1000 nM. In addition, the dissociation constant (Kd) at Placenta growth factor [3] is above 1000 nM.

Consider `CSCC[C@H](NC(=O)[C@@H](NC(=O)[C@H](CCCCNC(C)=O)NC(=O)[C@@H]1CSSC[C@H](NC(=O)[C@H](CCCCNC(=O)COCC(=O)Nc2ccc(CCC(=O)N3CCC3=O)cc2)NC(=O)[C@H](CC(=O)O)NC(=O)[C@H](Cc2ccccc2)NC(C)=O)C(=O)N[C@@H](CC(N)=O)C(=O)N[C@@H](Cc2c[nH]c3ccccc23)C(=O)N[C@@H](C(C)C)C(=O)N[C@@H]([C@@H](C)O)C(=O)N[C@@H](CC(C)C)C(=O)N2CCC[C@H]2C(=O)N[C@@H](Cc2cnc[nH]2)C(=O)N1)C(C)C)C(N)=O` (Ac-FDK(X1)CNWVTLPHCK(Ac)VM-NH2; disulfide 4-12), for which the IC50 on Placenta growth factor [1] was above 1000 nM. On Placenta growth factor [3], the dissociation constant (Kd) is above 1000 nM.

At Placenta growth factor [4], `CC[C@H](C)[C@@H]1NC(=O)[C@H](Cc2ccc(O)cc2)NC(=O)[C@H](Cc2cnc[nH]2)NC(=O)[C@@H](NC(=O)[C@@H](NC(=O)[C@H](CCC(=O)O)NC(=O)[C@H](Cc2ccccc2)NC(=O)[C@H](C)NC(=O)[C@H](C)NC(=O)[C@H](CC(=O)O)NC(C)=O)C(C)C)CSSC[C@@H](C(=O)N[C@H](C(=O)N[C@@H](CCCN=C(N)N)C(=O)N[C@@H](Cc2ccc(O)cc2)C(N)=O)[C@@H](C)O)NC(=O)[C@H](Cc2cnc[nH]2)NC(=O)[C@@H]2CCCN2C(=O)[C@H](CC(C)C)NC(=O)[C@H](CCCCNC(=O)COCC(=O)Nc2ccc(CCC(=O)N3CCC3=O)cc2)NC1=O` (Ac-DAAFEVCHYIK(X1)LPHCTRY-NH2; disulfide 7-15) showed a half-inhibitory concentration (IC50) of 1 nM. In addition, in data set [5], the half-life was 14 h. In addition, at Placenta growth factor [3], the Kd worked out at 0.3 nM.

Take `CC[C@H](C)[C@@H]1NC(=O)[C@H](Cc2ccc(O)cc2)NC(=O)[C@H](Cc2cnc[nH]2)NC(=O)[C@@H](NC(=O)[C@@H](NC(=O)[C@H](CCC(=O)O)N(C)C(=O)[C@H](Cc2ccccc2)NC(=O)[C@H](C)NC(=O)[C@H](C)NC(=O)[C@H](CC(=O)O)NC(=O)[C@H](C)NC(C)=O)C(C)C)CSSC[C@@H](C(=O)N[C@H](C(=O)N[C@@H](CCCNC(=N)N)C(=O)N[C@@H](Cc2ccc(O)cc2)C(N)=O)[C@@H](C)O)NC(=O)[C@H](Cc2cnc[nH]2)NC(=O)[C@@H]2CCCN2C(=O)[C@H](CC(C)C)NC(=O)[C@H](CCCCNC(=O)COCC(=O)Nc2ccc(CCC(=O)N3CCC3=O)cc2)NC1=O` (Ac-ADAAF[NMeE]VCHYIK(X1)LPHCTRY-NH2; disulfide 8-16): it took 3 nM to reach half-maximal inhibition against Placenta growth factor [4] (IC50). The half-life in data set [5] is 24 h. Also, at Placenta growth factor [3], the Kd was 8 nM.
